Reference: PubChem BioAssay AID1222 (Sanford-Burnham Center for Chemical Genomics, 2008)
The source made the active and inactive calls.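 How the source made its calls: active means EC50 below 50 µM in the dose-response confirmation; inactive means the rest.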

Each compound was assayed on CSM14.1 thapsigargin-induced death rescue, ATP luminescence (assay: protection against thapsigargin-triggered cell killing – 384-well, CSM14.1, ATP luminescence, primary screen (AID 1222);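 further: death triggered by thapsigargin at about 15 µM added after 2 h compound pretreatment; cell ATP read after overnight thapsigargin exposure of roughly 18 to 22 hours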).

SMILES	EC50
COc1ccc(-c2oc3ccccc3c(=O)c2OC(C)=O)cc1	> 100 µM (inactive)
CC12C(=O)N(c3ccc(C(=O)N4CCOCC4)cc3)C(=O)C1C1c3ccccc3C2c2ccccc21 (stereo not given)	> 100 µM (inactive)
O=C(NC1CCCCC1)C(c1ccc2ncccc2c1)N(Cc1ccccc1)C(=O)c1ccc2c(c1)OCCO2 (stereo not given)	32.3 µM
CCC(=O)NC(=S)NNC(=O)c1ccc(OC)cc1	> 100 µM (inactive)
CCCCCCn1c(O)c(/C=C2\C=NN=C2c2ccccc2)sc1=S	> 100 µM (inactive)
C#CCOCCOCCOCCNc1nc(N2CCN(C(=O)[C@H](C)n3cc(CCCN=C(N)N)nn3)CC2)nc(N2CCN(C(=O)[C@H](C)n3cc(CCCN=C(N)N)nn3)CC2)n1	> 100 µM (inactive)
O=C(CSc1nnnn1-c1ccccc1)c1cc2ccccc2oc1=O	> 100 µM (inactive)
CN1CCC(O)(c2ccccc2)C(C(=O)c2ccccc2)C1 (stereo not given)	> 100 µM (inactive)
CCC(=O)Nc1nc2ccccc2n1Cc1ccc(Cl)cc1	> 100 µM (inactive)
Cc1nc(N2CCN(C(=O)c3ccco3)CC2)c2c3c(sc2n1)CC(C)CC3 (stereo not given)	58.7 µM (inactive)
CC(C)CC(NC(=O)OC(C)(C)C)c1cn([C@@H](Cc2cc3ccccc3[nH]2)C(=O)N2CCN(C(=O)OC(C)(C)C)CC2)nn1 (stereo not given in full)	62.2 µM (inactive)
COC(=O)[C@@]1(Cc2ccc(F)cc2)[C@H]2c3cc(C(=O)N4CCCC4)n(CCc4c[nH]c5ccc(OC)cc45)c3C[C@H]2CN1C(=O)c1ccccc1	66.2 µM (inactive)
COc1ccc(C(=O)NNC(=S)NC(=O)C(C)(C)C)cc1	> 100 µM (inactive)
O=c1c2c(-c3ccccc3)csc2ncn1/N=C/c1cccc([N+](=O)[O-])c1O	> 100 µM (inactive)
CC[C@@H](C)[C@@H](C(=O)N1CCN(C(=O)OC(C)(C)C)CC1)n1cc(CCCN=C(NC(=O)OC(C)(C)C)NC(=O)OC(C)(C)C)nn1	58.5 µM (inactive)
O=C(NC1CCCCC1)C(c1ccc2ncccc2c1)N(Cc1ccc2c(c1)OCO2)C(=O)c1ccc2c(c1)OCCO2 (stereo not given)	21.3 µM
O=C(NC1CCCCC1)C(c1ccc2ncccc2c1)N(Cc1ccc(F)cc1)C(=O)c1ccc2c(c1)OCCO2 (stereo not given)	28.8 µM
Cc1cccc(C(=O)O/N=C(/c2ccccc2)c2ccncc2)c1	> 100 µM (inactive)
CCc1ccc(CC2S/C(=C(\C#N)C(C)=O)NC2=O)cc1 (stereo not given)	> 100 µM (inactive)
CCCC1=[N+](CC(C)=O)CCn2c(C)ccc21	> 100 µM (inactive)

SMILES	EC50
CCCCC(=O)NC(=S)NNC(=O)c1ccc(Cl)cc1Cl	> 100 µM (inactive)
COc1ccc(CNC(=O)CCCn2nc(C)c([N+](=O)[O-])c2C)cc1OC	> 100 µM (inactive)
CCOC(=O)C1=C(NC(=S)NC(=O)c2ccccc2)c2ccccc2CC1(C)C	> 100 µM (inactive)
C#CCOCCOCCOCCNc1nc(N2CCN(C(=O)[C@H](CCCCN)n3cc(CCCC)nn3)CC2)nc(N2CCN(C(=O)[C@H](CCCCN)n3cc(CCCC)nn3)CC2)n1	> 100 µM (inactive)
O=S(=O)(c1ccc2c(c1)OCCO2)N1CCN(c2nc(-c3cccnc3)nc3ccccc23)CC1	76.4 µM (inactive)
O=C(Nc1nonc1-c1ccc(Cl)cc1)c1ccccc1	> 100 µM (inactive)
Cc1ccc2cccc(N=Cc3c(C)[nH]n(-c4ccccc4)c3=O)c2n1	> 100 µM (inactive)
COc1ccc(CN(C(=O)c2ccc3c(c2)OCCO3)C(C(=O)NC2CCCCC2)c2ccc3ncccc3c2)cc1 (stereo not given)	31.4 µM
CCN1C(=O)/C(=C/c2ccc3c(c2)CCN3CCCCl)C(=O)NC1=S	44.7 µM
CC12COC3(P(=O)(c4ccccc4)c4ccccc4)CC1CCC23CP(=O)(c1ccccc1)c1ccccc1 (stereo not given)	40.2 µM
COc1ccc(CN(C(=O)c2cccs2)C(C(=O)NC2CCCCC2)c2ccc3ncccc3c2)cc1 (stereo not given)	68.5 µM (inactive)
O=C(Nc1nc(-c2cc(F)ccc2F)cs1)c1ccccn1	> 100 µM (inactive)
COCCn1c(C)cc(C(=O)COC(=O)CCN2C(=O)c3ccccc3C2=O)c1C	> 100 µM (inactive)
COc1ccc(C(=O)C(OC(=O)c2ccccc2)c2ccccc2)cc1 (stereo not given)	66.5 µM (inactive)
C/C(=N\NC(=S)Nc1cccc(C)c1)c1ccco1	> 100 µM (inactive)
Cc1ccc(OCC(=O)NCCC2=CCCCC2)cc1	> 100 µM (inactive)
CCN1CCc2c(OCC(=O)N3N=C(c4cccs4)CC3c3ccc(F)cc3)cccc2C1=O (stereo not given)	42 µM
O=C(c1ccc(N2CCCC2=O)cc1)N1CCCCCC1	> 100 µM (inactive)
Cc1c(Cl)c(C(F)F)nn1CC(=O)NC1C(=O)N2C(C(=O)O)=C(CSc3nnnn3C)CSC12 (stereo not given)	> 100 µM (inactive)
CC1=NN(/C(=N\c2nnc(C)s2)Nc2ccccc2)[C@H](c2ccc(C)cc2)S1	> 100 µM (inactive)

SMILES	EC50
Cc1cc(CNC(=O)Cc2ccccc2)c2ccccc2n1	> 100 µM (inactive)
C#CCOCCOCCOCCNc1nc(N2CCN(C(=O)[C@H]([C@@H](C)CC)n3cc(CCCN=C(N)N)nn3)CC2)nc(N2CCN(C(=O)[C@H](CCCCN)n3cc(CCCC)nn3)CC2)n1	> 100 µM (inactive)
CCCCC(=O)NNC(=S)NC(=O)c1ccc(C)cc1	> 100 µM (inactive)
COc1ccc(C2=C/C(=C\c3cccc(OC(C)=O)c3)C(=O)O2)cc1	> 100 µM (inactive)
COc1ccc(/C=C/C(=O)N2CCCc3ccccc32)cc1	> 100 µM (inactive)
Cc1ccc2c(C(=O)N3CCN(c4ccccc4)CC3)cc(-c3cccnc3)nc2c1C	81.3 µM (inactive)
CNC(=O)c1c(NC(=O)c2nc3ccccc3s2)sc2c1CCC2	> 100 µM (inactive)
CCO[C@@H]1OC(C(=O)N2CCN(Cc3ccc4c(c3)OCO4)CC2)=C[C@H](c2csc3ccccc23)[C@H]1CCCO	86.1 µM (inactive)
COc1ccc(NC2=Nc3ccccc3N3C2=Nc2c(c(C)nn2-c2ccc(C)cc2)C3c2cccnc2)cc1 (stereo not given)	92.6 µM (inactive)
CCOc1ccccc1NC(=O)C(OC(=O)c1ccccc1NS(=O)(=O)c1cccs1)c1ccccc1 (stereo not given)	> 100 µM (inactive)
COc1ccccc1Cn1c(=S)[nH]c2cc(C(=O)NCC3CCCO3)ccc2c1=O (stereo not given)	> 100 µM (inactive)
Clc1ccc(OCCCN2CCCCC2)c(Br)c1	> 100 µM (inactive)
O=c1[nH]c(-c2ccccn2)nc2sc(-c3ccccc3)cc12	> 100 µM (inactive)
Cc1ccc(-c2nnn(CC(=O)N(Cc3cccs3)C(C(=O)NC3CCCC3)c3ccncc3)n2)cc1 (stereo not given)	> 100 µM (inactive)
COC(=O)c1ccc(NC(=O)C2CC(=O)N(c3ccc(C)cc3)C2)cc1 (stereo not given)	> 100 µM (inactive)
O=C(NC1CCCCC1)C(c1ccncc1)N(Cc1ccccc1)C(=O)c1ccc(-c2ccccc2)[nH]1 (stereo not given)	52.5 µM (inactive)
CCN(CC)c1ccc(/C=C(/C#N)c2nc3ccc(C)cc3[nH]2)c(OC(C)C)c1	> 100 µM (inactive)
CC(C)C(=O)N1CCC(CN=Cc2c(O)n(C3CCCCC3)c(=O)n(C3CCCCC3)c2=O)CC1	70.3 µM (inactive)
C=C(C)CNC(=S)N/N=C/c1ccc([N+](=O)[O-])cc1	> 100 µM (inactive)
CCOc1cc(/C=N/NC(=O)COc2cccc(C)c2)ccc1OC(=O)c1cccs1	> 100 µM (inactive)
